# Reference: the supplement of paper PMC4862054
# Tests used:
# Conditions in all cases: incubation time: 72 h
# CAL-120 [1] = experiment: drug sensitivity score (DSS), CellTiter-Blue viability (DSS (AUC-based score)); higher = stronger viability inhibition; extreme values may be limits of the assay
# Experimental: (§1)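 DSRT with the CellTiter-Blue (resazurin reduction) viability readout, fluorescence 560/590 nm, 72 h incubation. Plates were normalised to DMSO and benzethonium chloride controls. DSS is computed from the area under the fitted dose-response curve (5 or 9 concentrations).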
# CAL-85-1 [2] = experiment: as above
# Experimental: as §1
# SK-BR-3 [3] = experiment: as above
# Experimental: as §1
# MFM-223 [4] = experiment: as above
# Experimental: as §1
# HDQ-P1 = experiment: as above
# Experimental: as §1
# MDA-MB-231 [5] = experiment: as above
# Experimental: as §1
# MDA-MB-468 [6] = experiment: as above
# Experimental: as §1
# HCC1937 [7] = experiment: as above
# Experimental: as §1
# CAL-148 [8] = experiment: as above
# Experimental: as §1
# MDA-MB-436 [9] = experiment: as above
# Experimental: as §1
# MDA-MB-453 [10] = experiment: as above
# Experimental: as §1
# BT-549 [11] = experiment: as above
# Experimental: as §1
# HCC1143 [12] = experiment: as above
# Experimental: as §1
# CAL-120 [13] = experiment: normalised viability (% of control), CellTiter-Blue; higher = more viable cells (about 100 = DMSO control)
# Experimental: (§2)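 DSRT, CellTiter-Blue viability, 72 h incubation. Signal is normalised to DMSO and benzethonium chloride controls. Value is the normalised response at dose 3.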
# CAL-85-1 [14] = experiment: as above
# Experimental: as §2
# SK-BR-3 [15] = experiment: as above
# Experimental: as §2
# MFM-223 [16] = experiment: as above
# Experimental: as §2
# MDA-MB-231 [17] = experiment: as above
# Experimental: as §2
# Hs578T = experiment: as above
# Experimental: as §2
# MDA-MB-468 [18] = experiment: as above
# Experimental: as §2
# HCC1937 [19] = experiment: as above
# Experimental: as §2
# CAL-148 [20] = experiment: as above
# Experimental: as §2
# MDA-MB-436 [21] = experiment: as above
# Experimental: as §2
# DU-4475 = experiment: as above
# Experimental: as §2
# MDA-MB-453 [22] = experiment: as above
# Experimental: as §2
# BT-549 [23] = experiment: as above
# Experimental: as §2
# BT-474 = experiment: as above
# Experimental: as §2
# HCC1599 = experiment: as above
# Experimental: as §2
# HCC1143 [24] = experiment: as above
# Experimental: as §2
Compound,drug sensitivity score (CAL-120 [1]),drug sensitivity score (CAL-85-1 [2]),drug sensitivity score (SK-BR-3 [3]),drug sensitivity score (MFM-223 [4]),drug sensitivity score (HDQ-P1),drug sensitivity score (MDA-MB-231 [5]),drug sensitivity score (MDA-MB-468 [6]),drug sensitivity score (HCC1937 [7]),drug sensitivity score (CAL-148 [8]),drug sensitivity score (MDA-MB-436 [9]),drug sensitivity score (MDA-MB-453 [10]),drug sensitivity score (BT-549 [11]),drug sensitivity score (HCC1143 [12]),normalised viability (CAL-120 [13]; 100 nM) [%],normalised viability (CAL-85-1 [14]; 10 nM) [%],normalised viability (SK-BR-3 [15]; 100 nM) [%],normalised viability (MFM-223 [16]; 100 nM) [%],normalised viability (MDA-MB-231 [17]; 100 nM) [%],normalised viability (Hs578T; 100 nM) [%],normalised viability (MDA-MB-468 [18]; 100 nM) [%],further results
COc1cccc2c1C(=O)c1c(O)c3c(c(O)c1C2=O)C[C@@](O)(C(=O)CO)C[C@@H]3O[C@H]1C[C@H](N)[C@H](O)[C@H](C)O1 [Doxorubicin],11.3,5.11,13.3,2.94,7,9.57,9.27,11.8,14.2,8.25,4.31,7.93,8.86,,,,,,,,normalised viability (CAL-120 [13]; 10 nM): 84.6%; normalised viability (CAL-85-1 [14]; 1 nM): 95.7%; normalised viability (SK-BR-3 [15]; 10 nM): 75.6%; normalised viability (MFM-223 [16]; 10 nM): 89.4%; normalised viability (MDA-MB-231 [17]; 10 nM): 78.6%; normalised viability (Hs578T; 10 nM): 99.5%; normalised viability (MDA-MB-468 [18]; 10 nM): 98.8%; normalised viability (HCC1937 [19]; 10 nM): 98.9%; normalised viability (CAL-148 [20]; 1 nM): 96.6%; normalised viability (MDA-MB-436 [21]; 10 nM): 92.4%; normalised viability (DU-4475; 1 nM): 103%; normalised viability (MDA-MB-453 [22]; 1 nM): 99.1%; normalised viability (BT-549 [23]; 10 nM): 98.9%; normalised viability (BT-474; 10 nM): 95.5%; normalised viability (HCC1599; 10 nM): 102%; normalised viability (HCC1143 [24]; 10 nM): 83.4%
Cc1ccc(F)c(NC(=O)Nc2ccc(-c3cccc4[nH]nc(N)c34)cc2)c1 [Linifanib],0,0,0,0,0,0,0,0,0,0,0,0,0,,,,,,,,normalised viability (CAL-120 [13]; 10 nM): 95.2%; normalised viability (CAL-85-1 [14]; 1 nM): 99%; normalised viability (SK-BR-3 [15]; 10 nM): 119%; normalised viability (MFM-223 [16]; 10 nM): 102%; normalised viability (MDA-MB-231 [17]; 10 nM): 103%; normalised viability (Hs578T; 10 nM): 82.9%; normalised viability (MDA-MB-468 [18]; 10 nM): 123%; normalised viability (HCC1937 [19]; 10 nM): 109%; normalised viability (CAL-148 [20]; 1 nM): 104%; normalised viability (MDA-MB-436 [21]; 10 nM): 124%; normalised viability (DU-4475; 1 nM): 96.5%; normalised viability (MDA-MB-453 [22]; 1 nM): 106%; normalised viability (BT-549 [23]; 10 nM): 94.8%; normalised viability (BT-474; 10 nM): 111%; normalised viability (HCC1599; 10 nM): 108%; normalised viability (HCC1143 [24]; 10 nM): 89.4%
COc1cc(Nc2ncc3c(n2)-c2ccc(Cl)cc2C(c2c(F)cccc2OC)=NC3)ccc1C(=O)O [MLN8237],10.7,11.9,16.7,9.51,14.2,10.4,15.8,17.8,15,6.09,16.6,8.32,10.4,68.2,95,53,77.7,75.5,51.3,62.6,normalised viability (HCC1937 [19]; 100 nM): 65.7%; normalised viability (CAL-148 [20]; 10 nM): 94.7%; normalised viability (MDA-MB-436 [21]; 100 nM): 91.5%; normalised viability (DU-4475; 10 nM): 102%; normalised viability (MDA-MB-453 [22]; 10 nM): 84.3%; normalised viability (BT-549 [23]; 100 nM): 62.2%; normalised viability (BT-474; 100 nM): 72.6%; normalised viability (HCC1599; 100 nM): 97.7%; normalised viability (HCC1143 [24]; 100 nM): 71.2%
S=c1[nH]cnc2nc[nH]c12 [Mercaptopurine],4.1,0,0,0,0,0,5.53,4.84,0,0,0,0,0,90.2,93.9,94,93.6,99.8,113,108,normalised viability (HCC1937 [19]; 100 nM): 104%; normalised viability (CAL-148 [20]; 10 nM): 94.1%; normalised viability (MDA-MB-436 [21]; 100 nM): 121%; normalised viability (DU-4475; 10 nM): 130%; normalised viability (MDA-MB-453 [22]; 10 nM): 113%; normalised viability (BT-549 [23]; 100 nM): 106%; normalised viability (BT-474; 100 nM): 111%; normalised viability (HCC1599; 100 nM): 93.5%; normalised viability (HCC1143 [24]; 100 nM): 92%
Clc1ccc(C(c2ccccc2Cl)C(Cl)Cl)cc1 (centres undefined) [Mitotane],0,0,0,0,0,0,0,0,0,0,0,0,0,86.3,99.9,112,93.9,91.7,99.8,98.8,normalised viability (HCC1937 [19]; 100 nM): 95.6%; normalised viability (CAL-148 [20]; 10 nM): 93.1%; normalised viability (MDA-MB-436 [21]; 100 nM): 105%; normalised viability (DU-4475; 10 nM): 98.6%; normalised viability (MDA-MB-453 [22]; 10 nM): 102%; normalised viability (BT-549 [23]; 100 nM): 98.5%; normalised viability (BT-474; 100 nM): 127%; normalised viability (HCC1599; 100 nM): 107%; normalised viability (HCC1143 [24]; 100 nM): 89.6%
COc1cccc2cc(-c3nc([C@H]4CC[C@H](C(=O)O)CC4)n4ncnc(N)c34)[nH]c12 [OSI-027],8.32,9.36,21.7,15.2,14.9,6.73,6.33,8.55,9.33,13.1,13.7,6.62,7.21,91.9,92.8,48.6,73.7,72.1,84.1,84.4,normalised viability (HCC1937 [19]; 100 nM): 84%; normalised viability (CAL-148 [20]; 10 nM): 92.6%; normalised viability (MDA-MB-436 [21]; 100 nM): 74.1%; normalised viability (DU-4475; 10 nM): 105%; normalised viability (MDA-MB-453 [22]; 10 nM): 80.9%; normalised viability (BT-549 [23]; 100 nM): 71.9%; normalised viability (BT-474; 100 nM): 95.1%; normalised viability (HCC1599; 100 nM): 88.9%; normalised viability (HCC1143 [24]; 100 nM): 119%
